The source of these data is patent US20250197382A1, “KIF18A INHIBITOR” (WIGEN BIOMEDICINE TECHNOLOGY (SHANGHAI) CO., LTD., priority 2022, published 2025).

This experiment addresses Recombinant human KIF18A (1-467His-tagged) protein (Homo sapiens (Human), UniProt Q8NI77). Briefly: KIF18A enzyme assay (microtubule-stimulated ATPase activity, ADP-Glo). The settings on record: 30 nM KIF18A, ATP 75 μM, read-out: inhibitory activity against KIF18A IC50. Type of experiment: biochemical. Here is the method: Biological Example 1. Assay for In Vitro Inhibition of Enzymatic Activity of KIF18A by Compounds of the Present Invention
KIF18A enzyme assay: The enzymatic activity of KIF18A after treatment with the compounds was measured by an assay of microtubule-stimulated ATPase activity. ADP generated from the ATPase reaction was measured in this assay. The compounds were serially diluted 2-fold in DMSO over a range of 22 concentration points. Recombinant human KIF18A (1-467His-tagged) protein was expressed using a baculovirus system. Concentrations of KIF18A protein, microtubules, and ATP in the reaction were optimized for a standardized homogenous enzyme assay using an ADP-Glo kinase/ATPase assay kit. A reaction buffer [(15 mM Tris, pH 7.5), 10 mM MgCl2, 0.01% PluronicF-68, 1 μM paclitaxel, and 30 μg/mL pig microtubules] was prepared. The compounds and KIF18A protein (30 nM) were added to the prepared reaction buffer, and the reaction mixture was incubated at room temperature for 15 min, followed by addition of ATP (Km, 75 μM). The resulting reaction mixture was incubated at room temperature for another 15 min. 5 μL of ADP-Glo reagent and 2.5 μL of the reaction mixture were mixed and the resulting mixture was incubated at room temperature for 40 min. 10 μL of ADP-Glo detection reagent was added and the mixture was incubated at room temperature for 40 min. Luminescence was measured using a microplate reader and compared with that of the DMSO group, and then the inhibition percentages and IC50 values of the compounds were calculated.
Background: ADP-Glo first removes unused ATP, then detects ADP through luciferase.

SMILES strings stand for the structures. Bounds are passed on as bounds.

Chain of Recombinant human KIF18A (1-467His-tagged) protein (Q8NI77 1-467): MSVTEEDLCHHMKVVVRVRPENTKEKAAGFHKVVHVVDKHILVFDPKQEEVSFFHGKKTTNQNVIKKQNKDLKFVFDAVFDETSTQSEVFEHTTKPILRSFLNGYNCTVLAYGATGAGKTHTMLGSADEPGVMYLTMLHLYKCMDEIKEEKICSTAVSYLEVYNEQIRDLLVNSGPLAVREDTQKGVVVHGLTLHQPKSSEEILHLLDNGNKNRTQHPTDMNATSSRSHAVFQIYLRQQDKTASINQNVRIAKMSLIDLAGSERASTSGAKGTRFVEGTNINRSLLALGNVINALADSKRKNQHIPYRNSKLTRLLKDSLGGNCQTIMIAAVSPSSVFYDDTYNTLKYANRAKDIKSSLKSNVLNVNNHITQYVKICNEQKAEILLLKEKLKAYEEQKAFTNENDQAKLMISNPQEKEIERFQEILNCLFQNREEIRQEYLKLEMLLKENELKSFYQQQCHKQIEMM
Chain of Recombinant human KIF18A (1-467His-tagged) protein (P02550 whole entry partner): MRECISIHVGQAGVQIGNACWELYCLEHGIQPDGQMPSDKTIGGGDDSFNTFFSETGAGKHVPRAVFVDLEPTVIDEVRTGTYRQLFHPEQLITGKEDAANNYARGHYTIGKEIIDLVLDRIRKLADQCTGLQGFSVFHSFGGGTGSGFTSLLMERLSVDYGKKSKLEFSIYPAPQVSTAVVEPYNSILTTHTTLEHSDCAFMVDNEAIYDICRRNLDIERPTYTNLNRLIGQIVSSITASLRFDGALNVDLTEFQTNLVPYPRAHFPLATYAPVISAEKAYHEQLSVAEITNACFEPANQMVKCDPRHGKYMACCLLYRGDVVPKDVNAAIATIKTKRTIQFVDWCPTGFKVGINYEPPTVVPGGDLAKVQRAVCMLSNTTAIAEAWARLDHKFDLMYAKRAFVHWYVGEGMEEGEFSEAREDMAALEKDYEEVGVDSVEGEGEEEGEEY
Chain of Recombinant human KIF18A (1-467His-tagged) protein (P02554 whole entry partner): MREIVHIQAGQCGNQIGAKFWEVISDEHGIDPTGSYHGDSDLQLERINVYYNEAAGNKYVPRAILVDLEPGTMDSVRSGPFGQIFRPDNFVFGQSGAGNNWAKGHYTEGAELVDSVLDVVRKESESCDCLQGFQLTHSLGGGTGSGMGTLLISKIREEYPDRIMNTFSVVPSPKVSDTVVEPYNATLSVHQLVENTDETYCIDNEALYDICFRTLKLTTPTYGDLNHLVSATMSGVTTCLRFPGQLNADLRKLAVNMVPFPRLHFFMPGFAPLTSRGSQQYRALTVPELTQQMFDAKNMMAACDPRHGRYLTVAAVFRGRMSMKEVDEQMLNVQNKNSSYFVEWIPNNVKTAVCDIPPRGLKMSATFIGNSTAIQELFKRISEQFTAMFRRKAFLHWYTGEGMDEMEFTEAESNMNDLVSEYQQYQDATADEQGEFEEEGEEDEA

The term IC50 denotes the midpoint of a concentration-inhibition curve. `O=C(Nc1ccc(S(=O)(=O)NCCO)cc1N1CCC2(CC1)CC2)c1cc2c(c(OC3CCC3)n1)OCC2` [Compound 119]: the IC50 was at most 100 nM.
`CC1(F)CCN(c2nc(C(=O)Nc3ccc(S(=O)(=O)NCCO)cc3N3CCC4(CC3)CC4)cc3c2OCC3)C1` (stereo not drawn) [Compound 120]: the concentration for half-maximal inhibition (IC50) was at most 100 nM.
Take `O=C(Nc1ccc(S(=O)(=O)NCCO)cc1N1CCC2(CC1)CC2)c1cc2c(c(N3CCC(F)CC3)n1)OCC2` [Compound 121]: the IC50 was at most 100 nM.
In the case of `O=C(Nc1ccc(S(=O)(=O)NCCO)cc1N1CCC2(CC1)CC2)c1cc2c(c(N3CC4CC4C3)n1)OCC2` (stereo not drawn) [Compound 122] it was at most 100 nM.
The result for `CC(C)(CO)Nc1nc(C(=O)Nc2ccc(S(=O)(=O)NCCO)cc2N2CCC3(CC2)CC3)cc2c1OCC2` [Compound 123] reads at most 100 nM; that for `O=C(Nc1ccc(S(=O)(=O)NCCO)cc1N1CCC2(CC1)CC2)c1cc2c(c(N3CCOCC3)n1)OCC2` [Compound 124], at most 100 nM; that for `C[C@@H](CO)NS(=O)(=O)c1ccc(NC(=O)c2cc3c(c(N4CCC(F)(F)CC4)n2)OCC3)c(N2CCC3(CC2)CC3)c1` [Compound 125], at most 100 nM.
The result for `C[C@@H]1CN(c2nc(C(=O)Nc3ccc(S(=O)(=O)N[C@@H](C)CO)cc3N3CCC4(CC3)CC4)cc3c2OCC3)CCO1` [Compound 127] reads at most 100 nM.
In the case of `C[C@H](CO)NS(=O)(=O)c1ccc(NC(=O)c2cc3c(c(N4CCO[C@H](C)C4)n2)OCC3)c(N2CCC3(CC2)CC3)c1` [Compound 128], the IC50 is at most 100 nM.
On to `C[C@@H]1CN(c2cc(NC(=O)c3ccc(NS(=O)(=O)CCO)cc3N3CCC4(CC3)CC4)cc3ccoc23)CCO1` [Compound 130], for which the IC50 was at most 100 nM.
Take `C[C@H]1CN(c2cc(NC(=O)c3ccc(NS(=O)(=O)CCO)cc3N3CCC4(CC3)CC4)cc3ccoc23)CCO1` [Compound 131]: the IC50 is at most 100 nM.
In the case of `O=C(Nc1cc(N2CC(F)(F)C2)c2occc2c1)c1ccc(NS(=O)(=O)CCO)cc1N1CCC2(CC1)CC2` [Compound 132] it was at most 100 nM; in that of `O=C(Nc1cc(OCCC(F)(F)F)c2occc2c1)c1ccc(NS(=O)(=O)CCO)cc1N1CCC2(CC1)CC2` [Compound 133], at most 100 nM; in that of `O=C(Nc1cc(N2CCC3(CC3)C2)c2occc2c1)c1ccc(NS(=O)(=O)CCO)cc1N1CCC2(CC1)CC2` [Compound 134], at most 100 nM.
The result for `O=C(Nc1cc(OC2CCC2)c2occc2c1)c1ccc(NS(=O)(=O)CCO)cc1N1CCC2(CC1)CC2` [Compound 135] reads at most 100 nM; that for `CC1(F)CCN(c2cc(NC(=O)c3ccc(NS(=O)(=O)CCO)cc3N3CCC4(CC3)CC4)cc3ccoc23)C1` (stereo not drawn) [Compound 136], at most 100 nM; that for `O=C(Nc1cc(N2CCC(F)CC2)c2occc2c1)c1ccc(NS(=O)(=O)CCO)cc1N1CCC2(CC1)CC2` [Compound 137], at most 100 nM.
The result for `O=C(Nc1cc(N2CC3CC3C2)c2occc2c1)c1ccc(NS(=O)(=O)CCO)cc1N1CCC2(CC1)CC2` (stereo not drawn) [Compound 138] reads at most 100 nM.
Consider `CC(C)(CO)Nc1cc(NC(=O)c2ccc(NS(=O)(=O)CCO)cc2N2CCC3(CC2)CC3)cc2ccoc12` [Compound 139], for which the IC50 is at most 100 nM.
Turning to `O=C(Nc1cc(N2CCOCC2)c2occc2c1)c1ccc(NS(=O)(=O)CCO)cc1N1CCC2(CC1)CC2` [Compound 140], the IC50 is at most 100 nM.
In the case of `C[C@@H](CO)S(=O)(=O)Nc1ccc(C(=O)Nc2cc(N3CCC(F)(F)CC3)c3occc3c2)c(N2CCC3(CC2)CC3)c1` [Compound 141] it was at most 100 nM.
The result for `C[C@H](CO)S(=O)(=O)Nc1ccc(C(=O)Nc2cc(N3CCC(F)(F)CC3)c3occc3c2)c(N2CCC3(CC2)CC3)c1` [Compound 142] reads at most 100 nM; that for `C[C@@H]1CN(c2cc(NC(=O)c3ccc(NS(=O)(=O)[C@@H](C)CO)cc3N3CCC4(CC3)CC4)cc3ccoc23)CCO1` [Compound 143], at most 100 nM.
Regarding `C[C@@H]1CN(c2cc(NC(=O)c3ccc(NS(=O)(=O)[C@H](C)CO)cc3N3CCC4(CC3)CC4)cc3ccoc23)CCO1` [Compound 144], the IC50 was at most 100 nM.
As to `O=C(Nc1cc(N2CCC(F)(F)CC2)c2occc2c1)c1ccc(S(=O)(=O)NCCO)cc1N1CCC2(CC1)CC2` [Compound 145], the half-maximal inhibitory concentration (IC50) is at most 100 nM.
The result for `C[C@@H]1CN(c2cc(NC(=O)c3ccc(S(=O)(=O)NCCO)cc3N3CCC4(CC3)CC4)cc3ccoc23)CCO1` [Compound 146] reads at most 100 nM; that for `C[C@H]1CN(c2cc(NC(=O)c3ccc(S(=O)(=O)NCCO)cc3N3CCC4(CC3)CC4)cc3ccoc23)CCO1` [Compound 147], at most 100 nM; that for `O=C(Nc1cc(N2CC(F)(F)C2)c2occc2c1)c1ccc(S(=O)(=O)NCCO)cc1N1CCC2(CC1)CC2` [Compound 148], at most 100 nM.
The result for `O=C(Nc1cc(OCCC(F)(F)F)c2occc2c1)c1ccc(S(=O)(=O)NCCO)cc1N1CCC2(CC1)CC2` [Compound 149] reads at most 100 nM; that for `O=C(Nc1cc(N2CCC3(CC3)C2)c2occc2c1)c1ccc(S(=O)(=O)NCCO)cc1N1CCC2(CC1)CC2` [Compound 150], at most 100 nM.
In the case of `O=C(Nc1cc(OC2CCC2)c2occc2c1)c1ccc(S(=O)(=O)NCCO)cc1N1CCC2(CC1)CC2` [Compound 151] it was at most 100 nM; in that of `CC1(F)CCN(c2cc(NC(=O)c3ccc(S(=O)(=O)NCCO)cc3N3CCC4(CC3)CC4)cc3ccoc23)C1` (stereo not drawn) [Compound 152], at most 100 nM; in that of `O=C(Nc1cc(N2CCC(F)CC2)c2occc2c1)c1ccc(S(=O)(=O)NCCO)cc1N1CCC2(CC1)CC2` [Compound 153], at most 100 nM.
In the case of `O=C(Nc1cc(N2CC3CC3C2)c2occc2c1)c1ccc(S(=O)(=O)NCCO)cc1N1CCC2(CC1)CC2` (stereo not drawn) [Compound 154], the IC50 was at most 100 nM.
The result for `CC(C)(CO)Nc1cc(NC(=O)c2ccc(S(=O)(=O)NCCO)cc2N2CCC3(CC2)CC3)cc2ccoc12` [Compound 155] reads at most 100 nM; that for `O=C(Nc1cc(N2CCOCC2)c2occc2c1)c1ccc(S(=O)(=O)NCCO)cc1N1CCC2(CC1)CC2` [Compound 156], at most 100 nM.
The result for `C[C@@H](CO)NS(=O)(=O)c1ccc(C(=O)Nc2cc(N3CCC(F)(F)CC3)c3occc3c2)c(N2CCC3(CC2)CC3)c1` [Compound 157] reads at most 100 nM; that for `C[C@H](CO)NS(=O)(=O)c1ccc(C(=O)Nc2cc(N3CCC(F)(F)CC3)c3occc3c2)c(N2CCC3(CC2)CC3)c1` [Compound 158], at most 100 nM.
In the case of `C[C@@H]1CN(c2cc(NC(=O)c3ccc(S(=O)(=O)N[C@@H](C)CO)cc3N3CCC4(CC3)CC4)cc3ccoc23)CCO1` [Compound 159] it was at most 100 nM.
On to `C[C@H](CO)NS(=O)(=O)c1ccc(C(=O)Nc2cc(N3CCO[C@H](C)C3)c3occc3c2)c(N2CCC3(CC2)CC3)c1` [Compound 160], for which the IC50 is at most 100 nM.
For the molecule `O=C(Nc1ccc(NS(=O)(=O)CCO)cc1N1CCC2(CC1)CC2)c1cc(N2CCC(F)(F)CC2)c2occc2c1` [Compound 161], the IC50 is at most 100 nM.
As to `C[C@@H]1CN(c2cc(C(=O)Nc3ccc(NS(=O)(=O)CCO)cc3N3CCC4(CC3)CC4)cc3ccoc23)CCO1` [Compound 162], the IC50 is at most 100 nM.
Consider `C[C@H]1CN(c2cc(C(=O)Nc3ccc(NS(=O)(=O)CCO)cc3N3CCC4(CC3)CC4)cc3ccoc23)CCO1` [Compound 163], for which the IC50 is at most 100 nM.
The result for `O=C(Nc1ccc(NS(=O)(=O)CCO)cc1N1CCC2(CC1)CC2)c1cc(N2CC(F)(F)C2)c2occc2c1` [Compound 164] reads at most 100 nM; that for `O=C(Nc1ccc(NS(=O)(=O)CCO)cc1N1CCC2(CC1)CC2)c1cc(OCCC(F)(F)F)c2occc2c1` [Compound 165], at most 100 nM.
Turning to `O=C(Nc1ccc(NS(=O)(=O)CCO)cc1N1CCC2(CC1)CC2)c1cc(N2CCC3(CC3)C2)c2occc2c1` [Compound 166], the IC50 was at most 100 nM.
In the case of `O=C(Nc1ccc(NS(=O)(=O)CCO)cc1N1CCC2(CC1)CC2)c1cc(OC2CCC2)c2occc2c1` [Compound 167] it was at most 100 nM; in that of `CC1(F)CCN(c2cc(C(=O)Nc3ccc(NS(=O)(=O)CCO)cc3N3CCC4(CC3)CC4)cc3ccoc23)C1` (stereo not drawn) [Compound 168], at most 100 nM.
As to `O=C(Nc1ccc(NS(=O)(=O)CCO)cc1N1CCC2(CC1)CC2)c1cc(N2CCC(F)CC2)c2occc2c1` [Compound 169], the IC50 was at most 100 nM.
As for `O=C(Nc1ccc(NS(=O)(=O)CCO)cc1N1CCC2(CC1)CC2)c1cc(N2CC3CC3C2)c2occc2c1` (stereo not drawn) [Compound 170], the IC50 was at most 100 nM.
For `CC(C)(CO)Nc1cc(C(=O)Nc2ccc(NS(=O)(=O)CCO)cc2N2CCC3(CC2)CC3)cc2ccoc12` [Compound 171], the IC50 was at most 100 nM.
The result for `O=C(Nc1ccc(NS(=O)(=O)CCO)cc1N1CCC2(CC1)CC2)c1cc(N2CCOCC2)c2occc2c1` [Compound 172] reads at most 100 nM; that for `C[C@@H](CO)S(=O)(=O)Nc1ccc(NC(=O)c2cc(N3CCC(F)(F)CC3)c3occc3c2)c(N2CCC3(CC2)CC3)c1` [Compound 173], at most 100 nM.
`C[C@H](CO)S(=O)(=O)Nc1ccc(NC(=O)c2cc(N3CCC(F)(F)CC3)c3occc3c2)c(N2CCC3(CC2)CC3)c1` [Compound 174]: the half-maximal inhibitory concentration (IC50) was at most 100 nM.
